Patent US6333447A, “Transgenic model of heart failure” (The General Hospital Corporation, priority 1996, dated 2001)

Key:
[1] = tested on: transgenic (Gsα overexpressing) and control mice; test: M-mode echocardiography and ECG during graded intravenous infusion of sympathomimetic amines in anesthetized mice
[2] = tested on: transgenic (Gsα overexpressing) and wild-type control mice; test: Left ventricular contractility (LV dP/dt) by Millar micromanometer with heart rate held constant by pacing
mice = details: chronic administration; cited from earlier work
rats = details: infusion for several weeks; cited from earlier work
[3] = TG mice, norepinephrine infusion 0.05 μg/kg/min
[4] = TG mice, norepinephrine infusion 0.1 μg/kg/min
[5] = TG mice, norepinephrine infusion 0.2 μg/kg/min
[6] = TG mice, norepinephrine infusion 0.2 μg/kg/min, listed as Norepinephrine
[7] = control mice, norepinephrine infusion 0.1 μg/kg/min
[8] = control mice, norepinephrine infusion 0.2 μg/kg/min
[9] = control mice, norepinephrine infusion 0.2 μg/kg/min, listed as Norepinephrine
[10] = control mice, norepinephrine infusion 0.4 μg/kg/min
[11] = TG mice, isoproterenol infusion 0.005 μg/kg/min
[12] = TG mice, isoproterenol infusion 0.01 μg/kg/min
[13] = TG mice, isoproterenol infusion 0.02 μg/kg/min
[14] = TG mice, isoproterenol infusion 0.02 μg/kg/min, listed as Isoproterenol
[15] = control mice, isoproterenol infusion 0.01 μg/kg/min
[16] = control mice, isoproterenol infusion 0.02 μg/kg/min
[17] = control mice, isoproterenol infusion 0.02 μg/kg/min, listed as Isoproterenol
[18] = control mice, isoproterenol infusion 0.04 μg/kg/min

## NC[C@H](O)c1ccc(O)c(O)c1 [norepinephrine]
[1]; [3]
  Ejection Fraction: 79.8 ± 4.0%
  Fractional Shortening: 41.9 ± 3.9%
  Heart Rate: 320 ± 13 beats/min
  LVID end-diastole: 3.6 ± 0.1 mm
  LVID end-systole: 2.1 ± 0.1 mm
[1]; [4]
  Ejection Fraction: 88.3 ± 3.8%
  Fractional Shortening: 52.2 ± 4.8%
  Heart Rate: 322 ± 16 beats/min
  LVID end-diastole: 3.6 ± 0.2 mm
  LVID end-systole: 1.7 ± 0.2 mm
[1]; [5]
  Ejection Fraction: 93±2%
  Fractional Shortening: 59±4%
  Heart Rate: 341 ± 18 beats/min
  LVID end-diastole: 3.6 mm
  LVID end-systole: 1.5 ± 0.2 mm
[1]; [6]
  Ejection Fraction: 92.8 ± 2.1%
  Fractional Shortening: 59.4 ± 4.1%
[1]; [7]
  Ejection Fraction: 78.3 ± 0.1%
  Fractional Shortening: 39.9 ± 0.5%
  Heart Rate: 241 ± 27 beats/min
  LVID end-diastole: 4.0 ± 0.1 mm
  LVID end-systole: 2.4 ± 0.1 mm
[1]; [8]
  Ejection Fraction: 85±3%
  Fractional Shortening: 47±3%
  Heart Rate: 252 ± 33 beats/min
  LVID end-diastole: 4.1 ± 0.1 mm
  LVID end-systole: 2.2 mm
[1]; [9]
  Ejection Fraction: 84.8%
  Fractional Shortening: 47.0%
[1]; [10]
  Ejection Fraction: 92.3 ± 2.0%
  Fractional Shortening: 58.2 ± 3.9%
  Heart Rate: 272 ± 44 beats/min
  LVID end-diastole: 4.0 ± 0.1 mm
  LVID end-systole: 1.7 ± 0.2 mm
[1]; norepinephrine infusion, either group (control or transgenic)
  Chronotropic effect: no significant chronotropic effect
[1]; norepinephrine infusion, transgenic or control group
  Effect on left ventricular end-diastolic dimensions: no effect
[2]; transgenic mice, heart rate held constant (8.3±1.2 Hz), norepinephrine 0.1 μg/kg/min
  Increase of left ventricular contractility (LV dP/dt) from baseline: 65±8%
[2]; wild-type control mice, heart rate held constant (6.0±0.0 Hz), norepinephrine 0.1 μg/kg/min, baseline 7292±461 mm Hg/sec
  Increase of left ventricular contractility (LV dP/dt) from baseline: 28±4%

## CC(C)NCC(O)c1ccc(O)c(O)c1 (centres unmarked) [isoproterenol]
[1]; [11]
  Ejection Fraction: 80.6 ± 3.2%
  Fractional Shortening: 42.5 ± 3.2%
  Heart Rate: 369 ± 12 beats/min
  LVID end-diastole: 3.5 ± 0.3 mm
  LVID end-systole: 2.0 ± 0.1 mm
[1]; [12]
  Ejection Fraction: 89.5 ± 2.6%
  Fractional Shortening: 53.5 ± 3.5%
  Heart Rate: 389 ± 10 beats/min
  LVID end-diastole: 3.4 ± 0.2 mm
  LVID end-systole: 1.6 ± 0.1 mm
[1]; [13]
  Ejection Fraction: 96±1%
  Fractional Shortening: 68±4%
  Heart Rate: 433 beats/min
  LVID end-diastole: 3.1 mm
  LVID end-systole: 1.0 ± 0.1 mm
[1]; [14]
  Ejection Fraction: 96.3 ± 1.3%
  Fractional Shortening: 67.9 ± 4.2%
[1]; [15]
  Ejection Fraction: 76.7 ± 1.2%
  Fractional Shortening: 38.5 ± 1.1%
  Heart Rate: 213 ± 16 beats/min
  LVID end-diastole: 4.0 ± 0.1 mm
  LVID end-systole: 2.4 ± 0.0 mm
[1]; [16]
  Ejection Fraction: 86±3%
  Fractional Shortening: 48±3%
  Heart Rate: 236 ± 8 beats/min
  LVID end-diastole: 3.9 ± 0.1 mm
  LVID end-systole: 2.0 mm
[1]; [17]
  Ejection Fraction: 85.8%
  Fractional Shortening: 48.3%
[1]; [18]
  Ejection Fraction: 94.1 ± 2.0%
  Fractional Shortening: 62.8 ± 5.7%
  Heart Rate: 289 beats/min
  LVID end-diastole: 3.6 ± 0.1 mm
  LVID end-systole: 1.3 ± 0.2 mm
[1]; increasing doses of isoproterenol, both groups
  Left ventricular end-diastolic dimensions: decreased dose-dependently
mice
  Hypertrophic response: enhanced hypertrophic responses
[2]; transgenic mice, heart rate held constant (9.0-0.6 Hz), isoproterenol 0.02 μg/kg/min
  Increase of left ventricular contractility (LV dP/dt) from baseline: 33±2%
[2]; wild-type control mice, heart rate held constant (8.0±0.0 Hz), isoproterenol 0.02 μg/kg/min, baseline 6923±281 mm Hg/sec
  Increase of left ventricular contractility (LV dP/dt) from baseline: 13±2%
rats
  Myocardial pathology: myocardial hypertrophy with cellular necrosis and replacement fibrosis
